Values of other authors in paper PMC9851200, “Multiparameter phenotypic screening for endogenous TFEB and TFE3 translocation identifies novel chemical series modulating lysosome function” (Autophagy, 2022).

Assays:
Parameters in all cases: method as in original PKIS2 published data
[1] = target: kinases (KINOMEscan panel) (Homo sapiens, UniProt P07332); details: kinase FES; Published KINOMEscan; ref original PKIS2 published data; cited from earlier work
[2] = target: T1, kinases (KINOMEscan panel) (Homo sapiens, UniProt P30530); details: AXL; Published KINOMEscan; ref original PKIS2 published data; cited from earlier work
T1 sequence (P30530 26-894): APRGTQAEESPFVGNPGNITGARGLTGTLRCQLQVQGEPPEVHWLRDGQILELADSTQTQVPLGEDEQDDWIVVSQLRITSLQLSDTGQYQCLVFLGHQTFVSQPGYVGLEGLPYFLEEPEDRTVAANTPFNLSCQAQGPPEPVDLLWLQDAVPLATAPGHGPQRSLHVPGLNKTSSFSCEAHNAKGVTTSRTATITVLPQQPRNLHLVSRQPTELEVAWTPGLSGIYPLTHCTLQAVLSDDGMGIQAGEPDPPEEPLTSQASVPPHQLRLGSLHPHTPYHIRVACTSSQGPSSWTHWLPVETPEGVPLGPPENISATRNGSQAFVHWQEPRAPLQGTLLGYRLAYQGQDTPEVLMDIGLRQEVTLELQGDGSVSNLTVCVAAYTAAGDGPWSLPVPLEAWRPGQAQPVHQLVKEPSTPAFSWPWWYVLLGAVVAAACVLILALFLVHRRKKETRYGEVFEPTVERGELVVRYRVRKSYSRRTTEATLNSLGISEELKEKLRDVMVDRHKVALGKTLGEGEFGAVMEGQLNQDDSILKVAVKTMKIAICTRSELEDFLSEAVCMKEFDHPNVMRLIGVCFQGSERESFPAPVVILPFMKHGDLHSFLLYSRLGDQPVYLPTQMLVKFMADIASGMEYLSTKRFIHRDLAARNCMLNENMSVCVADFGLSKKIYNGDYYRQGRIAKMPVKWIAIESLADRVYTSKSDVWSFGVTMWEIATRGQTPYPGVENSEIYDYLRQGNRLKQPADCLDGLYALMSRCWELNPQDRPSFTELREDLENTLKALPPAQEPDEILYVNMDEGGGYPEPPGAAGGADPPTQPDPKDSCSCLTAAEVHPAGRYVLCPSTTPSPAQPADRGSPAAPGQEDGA

[3] = target: T2, kinases (KINOMEscan panel) (Homo sapiens, UniProt Q16566); details: CAMK4; Published KINOMEscan; ref original PKIS2 published data; cited from earlier work
T2 sequence (Q16566 1-473): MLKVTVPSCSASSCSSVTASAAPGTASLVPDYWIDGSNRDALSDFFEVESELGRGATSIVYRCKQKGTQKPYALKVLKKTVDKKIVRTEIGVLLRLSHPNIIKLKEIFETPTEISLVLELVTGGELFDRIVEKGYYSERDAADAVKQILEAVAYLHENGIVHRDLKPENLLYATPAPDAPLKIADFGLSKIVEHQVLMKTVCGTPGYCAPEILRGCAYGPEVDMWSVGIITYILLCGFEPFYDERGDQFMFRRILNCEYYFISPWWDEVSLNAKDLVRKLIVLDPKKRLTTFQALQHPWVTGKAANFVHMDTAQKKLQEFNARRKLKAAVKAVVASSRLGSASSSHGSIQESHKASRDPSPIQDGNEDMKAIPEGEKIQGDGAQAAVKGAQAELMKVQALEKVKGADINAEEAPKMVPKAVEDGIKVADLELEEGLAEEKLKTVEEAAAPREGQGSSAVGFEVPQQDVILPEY

[4] = target: T3, kinases (KINOMEscan panel) (Homo sapiens, UniProt Q9HBY8); details: Published KINOMEscan; ref original PKIS2 published data; cited from earlier work
T3 sequence (Q9HBY8 1-367): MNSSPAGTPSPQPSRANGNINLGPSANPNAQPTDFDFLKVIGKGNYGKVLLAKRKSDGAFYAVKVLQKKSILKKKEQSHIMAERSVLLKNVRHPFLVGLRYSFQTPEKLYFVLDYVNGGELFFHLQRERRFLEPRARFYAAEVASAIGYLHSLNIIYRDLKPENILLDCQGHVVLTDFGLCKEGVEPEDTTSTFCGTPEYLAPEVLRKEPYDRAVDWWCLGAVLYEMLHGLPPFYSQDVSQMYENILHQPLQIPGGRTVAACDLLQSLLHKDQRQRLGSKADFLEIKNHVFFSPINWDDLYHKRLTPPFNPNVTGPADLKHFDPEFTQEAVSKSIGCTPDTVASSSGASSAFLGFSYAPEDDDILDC

[5] = target: T4, kinases (KINOMEscan panel) (Homo sapiens, UniProt Q9Y616); details: IRAK3; Published KINOMEscan; ref original PKIS2 published data; cited from earlier work
T4 sequence (Q9Y616 1-596): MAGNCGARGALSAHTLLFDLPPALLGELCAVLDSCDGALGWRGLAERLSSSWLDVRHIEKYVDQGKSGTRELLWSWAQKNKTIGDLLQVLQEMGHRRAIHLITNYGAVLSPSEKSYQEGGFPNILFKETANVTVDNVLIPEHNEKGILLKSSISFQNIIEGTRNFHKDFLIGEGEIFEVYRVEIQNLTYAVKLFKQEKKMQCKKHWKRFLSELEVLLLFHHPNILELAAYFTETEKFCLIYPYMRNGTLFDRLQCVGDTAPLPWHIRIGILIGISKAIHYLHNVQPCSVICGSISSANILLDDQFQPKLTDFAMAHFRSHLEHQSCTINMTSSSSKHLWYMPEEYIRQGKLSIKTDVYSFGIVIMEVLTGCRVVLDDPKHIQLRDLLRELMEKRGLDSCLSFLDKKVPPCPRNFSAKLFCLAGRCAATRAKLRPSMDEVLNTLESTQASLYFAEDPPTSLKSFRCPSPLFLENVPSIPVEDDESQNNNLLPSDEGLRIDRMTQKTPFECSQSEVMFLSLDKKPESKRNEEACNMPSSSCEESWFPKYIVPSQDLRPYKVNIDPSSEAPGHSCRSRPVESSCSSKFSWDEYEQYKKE

kinases (KINOMEscan panel) (Homo sapiens, UniProt P07332), sequence (P07332 whole entry): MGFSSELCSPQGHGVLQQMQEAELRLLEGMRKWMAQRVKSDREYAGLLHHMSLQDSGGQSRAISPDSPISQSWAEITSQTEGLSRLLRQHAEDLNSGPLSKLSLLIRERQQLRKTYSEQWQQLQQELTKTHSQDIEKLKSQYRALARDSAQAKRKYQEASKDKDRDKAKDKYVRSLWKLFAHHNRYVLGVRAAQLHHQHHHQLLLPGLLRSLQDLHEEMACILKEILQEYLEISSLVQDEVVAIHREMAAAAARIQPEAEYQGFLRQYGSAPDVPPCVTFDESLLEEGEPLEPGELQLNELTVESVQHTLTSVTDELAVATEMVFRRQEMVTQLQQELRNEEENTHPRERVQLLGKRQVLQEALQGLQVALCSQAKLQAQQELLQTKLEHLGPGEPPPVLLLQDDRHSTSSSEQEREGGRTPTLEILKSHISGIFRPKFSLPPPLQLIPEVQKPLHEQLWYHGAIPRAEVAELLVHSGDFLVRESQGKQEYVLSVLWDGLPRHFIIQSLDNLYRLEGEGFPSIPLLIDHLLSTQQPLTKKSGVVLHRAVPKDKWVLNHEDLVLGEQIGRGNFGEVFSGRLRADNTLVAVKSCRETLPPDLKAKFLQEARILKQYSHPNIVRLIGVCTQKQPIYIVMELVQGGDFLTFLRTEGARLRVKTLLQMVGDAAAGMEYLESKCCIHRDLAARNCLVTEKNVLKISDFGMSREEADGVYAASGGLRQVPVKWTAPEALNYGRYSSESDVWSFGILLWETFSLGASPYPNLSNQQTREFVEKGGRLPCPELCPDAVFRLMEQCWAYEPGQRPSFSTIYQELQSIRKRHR

For Cc1cccc(-c2nc(Nc3ccncc3)c3ccccc3n2)n1 [NK215], the “KINOMEscan FES” value [1] is given as 13, the “KINOMEscan AXL” value [2] is given as 7 and the “KINOMEscan CAMK4” value [3] is given as 47. The “KINOMEscan SGK2” value [4] was 0 and the “KINOMEscan IRAK3” value [5] was 21.
